Consider six compounds from patent US10118944B2, “Cell penetrating peptides for intracellular delivery of molecules” (AADIGEN, LLC, priority 2012, dated 2018).

Data set [1] can be described thus: Fluorescence titration, VEPEP-5/SHM binding: doxorubicin. The note with it: cargo Doxorubicin. The protocol:
(§1) Fluorescence experiments were performed on a PTI spectrofluorimeter at 25° C. in a NaCl 154 mM buffer. Intrinsic Trp-fluorescence of VEPEP-5 was excited at 290 nm and emission spectrum was recorded between 310 and 400 nm, with a spectral band-pass of 2 and 8 nm for excitation and emission, respectively. FITC-fluorescence of labelled-peptide was excited at 492 nm and emission recorded between 500 and 580 nm. For […]/peptide interaction, 0.5 μM of FITC-labelled peptide was titrated by increasing concentrations of VEPEP-5. All measurements were corrected for the dilution and curve fitting were performed by using Grafit software (Erithacus).
(§2) VEPEP-5 peptides also form stable particles with small aromatic molecules including doxorubicin, porphyrin and charges molecules including nucleotide, nucleoside and peptide-analog of nucleic acids or fluorescent dyes (FIG. 1). The dissociation constant for small hydrophobic molecule ranges between 0.05 to 0.1 μM, depending on the nature of the dyes and of the peptides (Table 2).

Data set [2] in a line: Fluorescence titration, VEPEP-5/SHM binding: porphyrin. The note with it: cargo porphyrin. Here is the method: as §1, §2
Data set [3] is described as follows: Fluorescence titration, VEPEP-5/SHM binding: FAM-guanosine. As to conditions: cargo FAM-guanosine. Here is the method:
as §1, §2

Data set [4] concerns MEF. In words: VEPEP-5 mediated delivery of fluorescent labelled peptide (microscopy/FACS). It counts as cell-based, Mouse. The note with it: % of the cells. Here is the method: (§3) Adherent HS68 fibroblasts, HeLa, PC3, Jurkat, CEM-SS and U2OS MCF-7 cell lines (from American Type Culture Collection (ATCC)), as well as MEF and PBMC were cultured in Dulbecco's Modified Eagle's Medium supplemented with 2 mM glutamine, 1% antibiotics (streptomycin 10,000 μg/ml, penicillin, 10,000 IU/ml) and 10% (w/v) foetal calf serum (FCS), at 37° C. in a humidified atmosphere containing 5% CO2. Stock solutions of VEPEP-5/peptide particles were prepared by complexing 1 μM peptide with VEPEP-5 peptides at a molar ratio of 1/20 for 30 min at 37° C. Lower concentrations of VEPEP-5-carrier/peptide (from 500 nM to 1 μM) were obtained by serial dilution of the stock complexes in PBS, in order to preserve the same VEPEP-5-carrier/peptide ratio. 150 000 cells seeded in a 35 mm dish the day prior transfection, were grown to 60% confluence and overlaid with 200 μl of preformed complexes, incubated for 3-5 min, then 400 μl of DMEM were added. After 30 min. incubation at 37° C., 1 ml of fresh DMEM containing 16% foetal calf serum (FCS) was added in order to reach a final FCS concentration of 10%, without removing the overlay of VEPEP-5/peptide complexes. Cells were returned to the incubator for 24 hrs. For CDK2 derived peptides cell proliferation was monitored after 24 and 48 hrs. Data reported are an average of 3 or 4 distinct experiments.
(§4) VEPEP-5 peptides (Short-6, Short-7 and Short 11) have been used for the delivery of different peptides into different cell lines, including primary cell lines, stem cell lines and challenging cell lines. Peptide delivery was monitored using three approaches, fluorescence spectroscopy and monitoring biological responses (anti proliferation)
(§5) 1—Fluorescent labelled peptide was visualized in the different cell lines using fluorescence microscopy or FACS sorting (Table 3). In most of the cell lines, the uptake of Cy-5 labelled peptides is more than 70% of the cells

Data set [5] concerns CEM-SS. The description is as above. It counts as cell-based, Human. As to conditions: % of the cells. The protocol:
as §3, §4, §5

Data set [6] has as its system HS-68. The description is as above. It is filed as cell-based, Human. The note with it: HS-68, % of the cells. The protocol: as §3, §4, §5
The subject of data set [7] is Hela. Described as above. It counts as cell-based, Human. As to conditions: % of the cells. The protocol:
as §3, §4, §5

In data set [8] the test system is MCF7. The description is as above. It counts as cell-based, Human. As to conditions: MCF7, % of the cells. The protocol:
as §3, §4, §5

In the next data set the test system is PBMC. Described as above. It is filed as cell-based, Human. As to conditions: % of the cells. The protocol: as §3, §4, §5
Data set [9] concerns U2OS. The data set is described as above. As to conditions: % of the cells. It is filed as cell-based, Human. Here is the method: as §3, §4, §5
Data set [10] relates to MEF. Kind of data set: VEPEP-5 mediated delivery of proteins (fluorescence/FACS). It is filed as cell-based, Mouse. As to conditions: % of the cells. Here is the method:
as §3
(§6) VEPEP-5 have been used for the delivery of different proteins into different cell lines, including primary cell lines, stem cell lines and challenging cell lines. Protein uptake was monitored using fluorescence spectroscopy and FACS analysis. GFP/RFP or Fluorescent labelled proteins were visualized in the different cell lines using fluorescence microscopy or FACS sorting (Table 5). In most of the cell lines, the uptake of RFP; GFP, Cy-5 labelled proteins is more than 50% of the cells.

Data set [11] relates to CEM-SS. The data set is described as above. As to conditions: % of the cells. It is filed as cell-based, Human. Here is the method:
as §3, §6

Data set [12] deals with HS-68. Described as above. It is filed as cell-based, Human. As to conditions: HS-68, % of the cells. Here is the method: as §3, §6
Data set [13] relates to Hela. The description is as above. It counts as cell-based, Human. The note with it: % of the cells. The protocol: as §3, §6
For another data set, the system named is Jurkat. Described as above. The note with it: % of the cells. It counts as cell-based, Human. The protocol: as §3, §6
Data set [14] deals with MCF7. The data set is described as above. It is filed as cell-based, Human. The note with it: MCF7, % of the cells. Here is the method:
as §3, §6

In data set [15] the test system is U2OS. The data set is described as above. It counts as cell-based, Human. As to conditions: % of the cells. Here is the method:
as §3, §6

For a further data set, the system named is HeLa and U2OS cells. In words: Toxicity of VEPEP-5 particles by MTT assay. It is filed as cell-based, Human. Here is the method: Cytotoxic response was measured 24 hr later by colorimetric MTT assay (Sigma, Germany), respectively. […] Results correspond to the average of 3 separate experiments.
For orientation: Formazan colour is commonly taken as a measure of viable cells.

In another data set the test system is Cyclin B1 protein level. In words: VEPEP-5 mediated delivery of PNA antisense, Cyclin B1 knockdown. It is filed as cell-based, Human. The note with it: controls: free PNA; scrambled PNA complexed with Short-6 and Short-11. From the text: VEPEP-5 (Short-6, Short-7 and Short 11) peptides have been used for the delivery of nucleic acid analog (PNA and morpholino) into different cell lines, including primary cell lines and challenging cell lines. Uptake was monitored by following biological response (Cyclin B1 knockdown). We then have applied Short-6, Short-7 and Short 11 for the delivery of PNA antisense targeting Cyclin B1 as previously described by Morris et al..

Data set [16] has as its system Hela. Kind of data set: VEPEP-5 mediated delivery of C4 peptide (targeting cdk2/cyclin A), cell proliferation. As to conditions: VEPEP-5 (Short-6, Short-7 and Short 11) mediated delivery. It is filed as cell-based, Human. Here is the method:
as §3, with “experiments. […]” for “experiments.”

Data set [17] has as its system MCF7. The description is as above. It counts as cell-based, Human. The note with it: VEPEP-5 (Short-6, Short-7 and Short 11) mediated delivery. The protocol:
as §3, with “experiments. […]” for “experiments.”

Data set [18] deals with Hela. In words: VEPEP-5 mediated delivery of small hydrophobic molecules, inhibition of proliferation. It counts as cell-based. The note with it: Homo sapiens, free drug without carrier. The source says:
(§7) VEPEP-5 peptides (Short-6, Short-7 and Short 11) have been used for the delivery of different small hydrophobic molecules including doxorubicin and porphyrin on different cell lines including primary cell lines and challenging cell lines. VEPEP-5 peptides form stable particles with small aromatic molecules (table 2). Effect of VEPEP-5 mediated delivery of doxorubicin and porphyrin have been investigated on cancer cell viability. […] The impact of carrier peptides to improve cellular uptake of small molecule drugs was estimated by following inhibition of proliferation of cancer cells.

For data set [19], the system named is MCF7. The data set is described as above. As to conditions: Homo sapiens, free drug without carrier. It counts as cell-based.
Excerpt: as §7

Broadly, the Kd is the equilibrium constant for the complex coming apart. A lower Kd goes with a tighter complex. In the case of “X1RSWFRLWFR [Short 11, X1 is beta-A or S; N-terminus acetylated, C-terminal cysteamide]”, in data set [1], the “Binding, Doxorubicin” value is listed as “yes”. Moreover, in [2], the “Binding, porphyrin” value is listed as “yes”. The affinity in data set [2], expressed as Kd, was 700 nM. The “Binding, FAM-guanosine” value in data set [3] is on record as “yes”. Besides, the “Efficiency (uptake of fluorescent labelled peptide)” value (“Efficiency” below) in the data set with MEF [4] came out at 70%; with CEM-SS [5] it was 70%; in the data set with HS-68 [6] it was 80%; in the data set with Hela [7] it was 69%; with MCF7 [8] it was 58%; with PBMC, 78%. Besides, the “Efficiency” value in the data set on U2OS [9] was determined as 55%. Besides, the “uptake of RFP; GFP, Cy-5 labelled proteins” value (from here on “uptake of RFP; GFP”) in the data set on MEF [10] stood at 60%; in the data set on CEM-SS [11], 65%; with HS-68 [12], 70%; in the data set with Hela [13], 60%; with Jurkat, 78%; in the data set with MCF7 [14], 62%. In addition, the “uptake of RFP; GFP” value in the data set on U2OS [15] is 71%. Besides, the “toxicity (MTT)” value with HeLa and U2OS cells (levels up to 200 nM) is listed as “No toxicity”; in the data set with HeLa and U2OS cells (maximum concentration of 1 μM), “mild toxicity”.

With “TGC CAT CAA GCT TAG AGG-^CY5 (antisense TGCCATCAAGCTTAGAGG; all peptide nucleic acid (PNA); further chemistry not fully specified) [free PNA, PNA antisense targeting Cyclin B1, without carrier]”, in the data set on Cyclin B1 protein level, the “change in Cyclin B1 level” value is listed as “no change”.

Turning to “X1WFRLWFRLR [Short 7, X1 is beta-A or S; N-terminus acetylated, C-terminal cysteamide]”, in data set [1], the “Binding, Doxorubicin” value is listed as “yes”. For the same compound, the Kd in [1] was 70 nM; in data set [2], 500 nM. Besides, the “Binding, porphyrin” value in [2] is reported as “yes”. Also, in [3], the “Binding, FAM-guanosine” value was “yes”. Moreover, the “Efficiency” value is on record as 71% with MEF [4]; 75% in the data set with CEM-SS [5]; 78% with HS-68 [6]; 70% with Hela [7]; 75% with MCF7 [8]; 80% in the data set with PBMC. Also, the “Efficiency” value in the data set on U2OS [9] is reported as 71%. Also, the “uptake of RFP; GFP” value came to 65% in the data set with MEF [10]; 60% in the data set with CEM-SS [11]; 80% in the data set with HS-68 [12]; 80% with Hela [13]; 70% in the data set on Jurkat; 75% in the data set with MCF7 [14]. Also, the “uptake of RFP; GFP” value with U2OS [15] stood at 80%. For the same compound, the “toxicity (MTT)” value is “No toxicity” with HeLa and U2OS cells (levels up to 200 nM); “mild toxicity” in the data set with HeLa and U2OS cells (maximum concentration of 1 μM).

For “KKQVRMAHLVLT (synthesized peptide C4) [Short C4]”, the “peptide C4 concentration sufficient to block proliferation” value in the data set with Hela [16] and in the data set on MCF7 [17] was 100 nM throughout.

Consider “X1WWRLWWRLR [Short 6, X1 is beta-A or S; N-terminus acetylated, C-terminal cysteamide]”, for which, in data set [1], the “Binding, Doxorubicin” value is “yes”. For the same compound, the “Binding, porphyrin” value in data set [2] is recorded as “yes”. In addition, the Kd in [2] came to 400 nM; in data set [3], 60 nM. In addition, in data set [3], the “Binding, FAM-guanosine” value is recorded as “yes”. Also, the “Efficiency” value was determined as 64% in the data set with MEF [4]; 74% in the data set on CEM-SS [5]; 89% in the data set with HS-68 [6]; 45% in the data set with Hela [7]; 59% with MCF7 [8]; 78% in the data set on PBMC. Further, the “Efficiency” value in the data set on U2OS [9] is reported as 68%. For the same compound, the “uptake of RFP; GFP” value turned out to be 65% in the data set on MEF [10]; 55% in the data set with CEM-SS [11]; 78% with HS-68 [12]; 55% in the data set with Hela [13]; 60% in the data set on Jurkat; 70% in the data set on MCF7 [14]. Besides, the “uptake of RFP; GFP” value in the data set with U2OS [15] came out at 64%. Moreover, the “toxicity (MTT)” value is given as “No toxicity” in the data set with HeLa and U2OS cells (levels up to 200 nM); “mild toxicity” with HeLa and U2OS cells (maximum concentration of 1 μM).

As usually defined, the IC50 is the concentration needed to halve the response being measured. Low values mean inhibition by little substance, high ones a need for much substance. For the compound `C1=Cc2cc3ccc(cc4nc(cc5ccc(cc1n2)[nH]5)C=C4)[nH]3` [Porphyrin, porphyrin], the figures for the IC50 in the data set with Hela [18] and in the data set with MCF7 [19] were 25 µM and 17 µM, respectively.
